In patent US12435087B2, “Modulators of DCN-1 and methods of use thereof” (Cellarity, Inc., priority 2023, dated 2025):
Like-named read-outs stand apart in the source and are kept apart here.

Target: DCN1 (DCUND1) protein PONY domain (Homo sapiens (Human), UniProt Q96GG9)
Experiment: TR-FRET assay (binding to DCN-1, displacement of FAM-labeled probe)
Excerpt: (§1) The TR-FRET assay was designed following the Scott et al. protocol (Scott et al., Nat Chem Biol. 2017 August; 13(8): 850-857. doi:10.1038/nchembio.2386). The recombinant form of the DCN1 (DCUND1) protein PONY domain was produced using an E. coli expression system at Viva Biotech (China). The DCN1 protein was biotinylated (EZ sulfo-NHS-LC-biotin; Thermofisher) for labeling with streptavidin terbium (Tb) cryptate in the reaction. The probe was changed to a non-covalent DCN1 inhibitor labeled with carboxyfluorescein (FAM; Zhou et al., Nat Commun. 2017; 8: 1150. doi: 10.1038/s41467-017-01243-7). Buffer conditions were modified to enhance protein stability by exchanging Tween20 for TritonX and increasing NaCl to 200 mM. The compounds were screened against 5 nM DCN1 and 20 nM FAM-probe or 0.31 nM DCN1 and 900 nM total probe (100 nM FAM-labeled plus 800 nM unlabeled). The TR-FRET ratio between Tb-DCN1 and the FAM-labeled probe was measured in a 384-well opti-plate (Perkin Elmer) using a plate reader (BMG) at 1, 5, and 24 hrs after treatment with compound (final DMSO concentration of 0.1%). The ratio was normalized to the high (DCN1 and FAM-probe) and low (DCN1 and no probe) controls for a readout of % activity (=100*(x−low)/(high−low).
A TR-FRET assay was performed to evaluate the ability of the compounds to bind the DCN-1 protein.
as §1, with “850-857. Doi: 10.1038/nchembio.2386).” for “850-857. doi:10.1038/nchembio.2386).”, “the DCNI” for “the DCN1”, “1150. Doi:” for “1150. doi:”, “0.1%).” for “0.1%). The ratio was normalized to the high (DCN1 and FAM-probe) and low (DCN1 and no probe) controls for a readout of % activity (=100*(x−low)/(high−low).”

[1] = 24 hr after treatment with compound, read-out: TR FRET IC50 24 hr
[2] = TR FRET IC50 1 hr (nM), 1 hr after treatment with compound

Sequence of DCN1 (DCUND1) protein PONY domain (Q96GG9 60-248): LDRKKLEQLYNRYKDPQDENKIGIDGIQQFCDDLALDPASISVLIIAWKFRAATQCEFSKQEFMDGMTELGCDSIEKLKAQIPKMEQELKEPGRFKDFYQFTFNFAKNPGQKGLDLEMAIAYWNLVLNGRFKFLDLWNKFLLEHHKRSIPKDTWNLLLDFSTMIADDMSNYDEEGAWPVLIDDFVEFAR

| Structure (SMILES) | IC50 [1] [nM] | IC50 [2] [nM] |
| --- | --- | --- |
| C=CC(=O)N(C)c1cccc([C@H]2c3cnn(-c4ccccc4)c3N(CC)C(=O)[C@@H]2NC(=O)c2cccc(C(F)(F)F)c2)c1 (racemic) [Compound I-74] | 1000 to 3000 | 1000 to 3000 |
| CCN1C(=O)[C@@H](NC(=O)c2cccc(C(F)(F)F)c2)[C@H](c2cc(NC(=O)/C=C/CN(C)C)ccc2F)c2cnn(-c3ccccc3)c21 (racemic) [Compound I-79] | 200 to 1000 | 1000 to 3000 |
| CCN1C(=O)[C@@H](NC(=O)c2cccc(C(F)(F)F)c2)[C@@H](c2cc(F)cc(NC(=O)/C=C/CN(C)C)c2)c2cnn(-c3ccccc3)c21 (racemic) [Compound I-85] | 1000 to 3000 | 1000 to 3000 |
| C=C(C)S(=O)(=O)Nc1cccc([C@H]2c3c(C)nn(-c4ccccc4)c3N(CC)C(=O)[C@@H]2NC(=O)c2cccc(C(F)(F)F)c2)c1 (racemic) [Compound I-88] | 1000 to 3000 | 1000 to 3000 |
| CCN1C(=O)[C@H](NC(=O)c2cccc(C(F)(F)F)c2)[C@@H](c2ccccc2-n2sccc2=O)c2cnn(-c3ccccc3)c21 (racemic) [Compound I-89, ˜{N}—[˜{rac}-(4˜{S},5˜{R})-7-ethyl-6-oxo-4-[2-(3-oxoisothiazol-2-yl)phenyl]-1-phenyl-4,5-dihydropyrazolo[3,4-b]pyridin-5-yl]-3-(trifluoromethyl)benzamide] | 1000 to 3000 | 1000 to 3000 |
| CCN1C(=O)[C@H](NC(=O)c2cccc(C(F)(F)F)c2)[C@@H](c2ccccc2N(C)C#N)c2cnn(-c3ccccc3)c21 (racemic) [Compound I-90, ˜{N}—[˜{rac}-(4˜{S},5˜{R})-4-[2-[cyano(methyl)amino]phenyl]-7-ethyl-6-oxo-1-phenyl-4,5-dihydropyrazolo[3,4-b]pyridin-5-yl]-3-(trifluoromethyl)benzamide] | 1000 to 3000 | 1000 to 3000 |
| Cc1nn(-c2ccccc2)c2c1[C@H](c1cccc(NC(=O)C3=CCC3)c1)[C@@H](NC(=O)c1cccc(C(F)(F)F)c1)C(=O)N2CCO (racemic) [Compound I-92, rac-N-((4R,5S)-4-(3-(cyclobut-1-ene-1-carboxamido)phenyl)-7-(2-hydroxyethyl)-3-methyl-6-oxo-1-phenyl-4,5,6,7-tetrahydro-1H-pyrazolo[3,4-b]pyridin-5-yl)-3-(trifluoromethyl)benzamide] | 1000 to 3000 | 1000 to 3000 |
| C=CC(=O)N(C)c1ccccc1[C@H]1c2cnn(-c3ccccc3)c2N(CC)C(=O)[C@@H]1NC(=O)c1cccc(C(F)(F)F)c1 (racemic) [Compound I-97, ˜{N}—[˜{rac}-(4˜{S},5˜{R})-7-ethyl-4-[2-[methyl(prop-2-enoyl)amino]phenyl]-6-oxo-1-phenyl-4,5-dihydropyrazolo[3,4-b]pyridin-5-yl]-3-(trifluoromethyl)benzamide] | 1000 to 3000 | 1000 to 3000 |
| CC#CC(=O)N(C)c1ccccc1[C@H]1c2cnn(-c3ccccc3)c2N(CC)C(=O)[C@@H]1NC(=O)c1cccc(C(F)(F)F)c1 (racemic) [Compound I-98, ˜{N}—[˜{rac}-(4˜{S},5˜{R})-4-[2-[but-2-ynoyl(methyl)amino]phenyl]-7-ethyl-6-oxo-1-phenyl-4,5-dihydropyrazolo[3,4-b]pyridin-5-yl]-3-(trifluoromethyl)benzamide] | 1000 to 3000 | 1000 to 3000 |
| CCN1C(=O)[C@H](NC(=O)c2cccc(C(F)(F)F)c2)[C@@H](c2cccc(N(C)C(=O)/C=C/C(F)(F)F)c2)c2cnn(-c3ccccc3)c21 (racemic) [Compound I-99] | 1000 to 3000 | 1000 to 3000 |
| CCN1C(=O)[C@@H](NC(=O)c2cccc(C(F)(F)F)c2)[C@H](c2ccccc2CNC(=O)C2=CCC2)c2cnn(-c3ccccc3)c21 (racemic) [Compound I-101] | 1000 to 3000 | 1000 to 3000 |
| CCN1C(=O)[C@@H](NC(=O)c2cccc(C(F)(F)F)c2)[C@H](c2cccc(CN(C)C#N)c2)c2cnn(-c3ccccc3)c21 (racemic) [Compound I-104] | 1000 to 3000 | 1000 to 3000 |
| CCN1C(=O)[C@@H](NC(=O)c2cccc(C(F)(F)F)c2)[C@@H](c2cc(NC(=O)/C=C/CN(C)C)ccc2F)c2cnn(-c3ccccc3)c21 (racemic) [Compound I-107] | 1000 to 3000 | 1000 to 3000 |
| C=CC(=O)NCc1cccc([C@@H]2c3cnn(-c4ccccc4)c3N(CC)C(=O)[C@H]2NC(=O)c2cccc(C(F)(F)F)c2)c1 (racemic) [Compound I-111] | 1000 to 3000 | 1000 to 3000 |
| C=CC(=O)NCc1ccccc1[C@@H]1c2cnn(-c3ccccc3)c2N(CC)C(=O)[C@H]1NC(=O)c1cccc(C(F)(F)F)c1 (racemic) [Compound I-113] | 1000 to 3000 | 1000 to 3000 |
| CCN1C(=O)[C@@H](NC(=O)c2cccc(C(F)(F)F)c2)[C@H](c2cccc(NC(=O)C3=C(C(=O)OC)CCC3)c2)c2c(C)nn(-c3ccccc3)c21 (racemic) [Compound I-117] | 1000 to 3000 | 1000 to 3000 |
| CCN1C(=O)[C@@H](NC(=O)c2cccc(C(F)(F)F)c2)[C@H](c2ccccc2CNC(=O)/C=C/CN(C)C)c2cnn(-c3ccccc3)c21 (racemic) [Compound I-120] | 1000 to 3000 | 1000 to 3000 |
| CCN1C(=O)[C@H](NC(=O)c2cccc(C(F)(F)F)c2)[C@@H](c2ccccc2NC#N)c2cnn(-c3ccccc3)c21 (racemic) [Compound I-122, ˜{N}—[˜{rac}-(4˜{S},5˜{R})-4-[2-(cyanoamino)phenyl]-7-ethyl-6-oxo-1-phenyl-4,5-dihydropyrazolo[3,4-b]pyridin-5-yl]-3-(trifluoromethyl)benzamide] | 1000 to 3000 | 1000 to 3000 |
| CCN1C(=O)[C@H](NC(=O)c2cccc(C(F)(F)F)c2)[C@@H](c2cccc(NC(=O)C3CCC3)c2)c2c(C)nn(-c3ccccc3)c21 (racemic) [Compound I-123] | 1000 to 3000 | 1000 to 3000 |
| CCN1C(=O)[C@H](NC(=O)c2cccc(C(F)(F)F)c2)[C@@H](c2cccc(NC(C)=O)c2)c2c(C)nn(-c3ccccc3)c21 (racemic) [Compound I-124] | 1000 to 3000 | 1000 to 3000 |
| CCN1C(=O)[C@@H](NC(=O)c2cccc(C(F)(F)F)c2)[C@H](c2cccc(CNC(=O)C3=CCC3)c2)c2cnn(-c3ccccc3)c21 (racemic) [Compound I-126] | 1000 to 3000 | 1000 to 3000 |
| C/C=C(/C)S(=O)(=O)Nc1cccc([C@H]2c3c(C)nn(-c4ccccc4)c3N(CC)C(=O)[C@@H]2NC(=O)c2cccc(C(F)(F)F)c2)c1 (racemic) [Compound I-127] | 1000 to 3000 | 1000 to 3000 |
| CCN1C(=O)[C@@H](NC(=O)c2cccc(C(F)(F)F)c2)[C@@H](c2ccc(F)c(NC(=O)/C=C/CN(C)C)c2)c2cnn(-c3ccccc3)c21 (racemic) [Compound I-129] | 1000 to 3000 | 1000 to 3000 |
| C/C=C/S(=O)(=O)Nc1cccc([C@H]2c3c(C)nn(-c4ccccc4)c3N(CC)C(=O)[C@@H]2NC(=O)c2cccc(C(F)(F)F)c2)c1 (racemic) [Compound I-131] | ≤ 200 | 200 to 1000 |
| CCN1C(=O)[C@H](NC(=O)c2cccc(C(F)(F)F)c2)[C@@H](c2cccc(NC(=O)C#CCN(C)C)c2)c2cnn(-c3ccccc3)c21 (racemic) [Compound I-132, rac-N-((4R,5S)-4-(3-(4-(dimethylamino)but-2-ynamido)phenyl)-7-ethyl-6-oxo-1-phenyl-4,5,6,7-tetrahydro-1H-pyrazolo[3,4-b]pyridin-5-yl)-3-(trifluoromethyl)benzamide] | 200 to 1000 | 200 to 1000 |
| CCN1C(=O)[C@@H](NC(=O)c2cccc(C(F)(F)F)c2)[C@H](c2cccc(CNC#N)c2)c2c(C)nn(-c3ccccc3)c21 (racemic) [Compound I-138] | 200 to 1000 | 200 to 1000 |
| CCN1C(=O)[C@H](NC(=O)c2cccc(C(F)(F)F)c2)[C@@H](c2cccc(NC(=O)C#CCN3CCOCC3)c2)c2c(C)nn(-c3ccccc3)c21 (racemic) [Compound I-139, rac-N-((4R,5S)-7-ethyl-3-methyl-4-(3-(4-morpholinobut-2-ynamido)phenyl)-6-oxo-1-phenyl-4,5,6,7-tetrahydro-1H-pyrazolo[3,4-b]pyridin-5-yl)-3-(trifluoromethyl)benzamide] | 200 to 1000 | 1000 to 3000 |
